Measurements from patent US8710233B2 (Gruenenthal GmbH, priority 2005, dated 2014).
Read-outs that look alike come from different tables or passages of the source. Blank lines part the entries; values can stand above or below the compound they belong to.

Key:
[1] = biological target: T1, vanilloid receptor 1 (VR1/TRPV1) of the rat species (Rattus norvegicus, UniProt O35433); assay: FLIPR Ca2+ influx assay on rat dorsal root ganglia cells (pharmacological method I); type: cell-based
T1 construct: The spinal column is removed from decapitated rats; from tissue; host or cells: primary cells dissociated from rat dorsal root ganglia
T1 sequence (O35433 whole entry): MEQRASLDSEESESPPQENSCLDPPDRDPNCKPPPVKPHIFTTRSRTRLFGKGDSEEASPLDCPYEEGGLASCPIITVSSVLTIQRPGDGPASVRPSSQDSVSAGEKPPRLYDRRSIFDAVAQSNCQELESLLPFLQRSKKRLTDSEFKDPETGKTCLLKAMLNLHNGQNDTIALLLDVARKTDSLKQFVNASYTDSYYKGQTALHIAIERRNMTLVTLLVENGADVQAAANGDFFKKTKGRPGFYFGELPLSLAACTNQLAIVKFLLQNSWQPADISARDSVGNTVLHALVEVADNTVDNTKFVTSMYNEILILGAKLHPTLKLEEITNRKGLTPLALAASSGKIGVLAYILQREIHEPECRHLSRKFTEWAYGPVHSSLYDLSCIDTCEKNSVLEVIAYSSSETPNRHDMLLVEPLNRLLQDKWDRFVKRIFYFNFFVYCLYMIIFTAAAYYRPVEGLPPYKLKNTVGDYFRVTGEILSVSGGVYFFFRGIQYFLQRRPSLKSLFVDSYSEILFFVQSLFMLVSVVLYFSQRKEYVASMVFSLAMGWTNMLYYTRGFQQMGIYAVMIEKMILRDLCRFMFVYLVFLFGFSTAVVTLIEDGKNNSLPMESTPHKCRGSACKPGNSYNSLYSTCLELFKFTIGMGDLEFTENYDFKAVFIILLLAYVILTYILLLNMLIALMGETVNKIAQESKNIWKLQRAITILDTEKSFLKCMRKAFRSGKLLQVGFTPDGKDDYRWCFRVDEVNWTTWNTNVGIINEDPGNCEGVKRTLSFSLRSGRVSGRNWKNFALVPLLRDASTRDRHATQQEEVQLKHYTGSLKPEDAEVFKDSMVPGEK
Summary of the method: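 Primary rat dorsal root ganglion cells loaded with 2 μM Fluo-4, Ca2+ influx read on FLIPR as peak fluorescence. Triplicates, at least 3 independent experiments.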

VR1/TRPV1 receptor = VR1/TRPV1 receptor (Homo sapiens, UniProt Q8NER1); assay: IC50 (human) after pH stimulus; type: cell-based
Sequence of VR1/TRPV1 receptor (Q8NER1 whole entry): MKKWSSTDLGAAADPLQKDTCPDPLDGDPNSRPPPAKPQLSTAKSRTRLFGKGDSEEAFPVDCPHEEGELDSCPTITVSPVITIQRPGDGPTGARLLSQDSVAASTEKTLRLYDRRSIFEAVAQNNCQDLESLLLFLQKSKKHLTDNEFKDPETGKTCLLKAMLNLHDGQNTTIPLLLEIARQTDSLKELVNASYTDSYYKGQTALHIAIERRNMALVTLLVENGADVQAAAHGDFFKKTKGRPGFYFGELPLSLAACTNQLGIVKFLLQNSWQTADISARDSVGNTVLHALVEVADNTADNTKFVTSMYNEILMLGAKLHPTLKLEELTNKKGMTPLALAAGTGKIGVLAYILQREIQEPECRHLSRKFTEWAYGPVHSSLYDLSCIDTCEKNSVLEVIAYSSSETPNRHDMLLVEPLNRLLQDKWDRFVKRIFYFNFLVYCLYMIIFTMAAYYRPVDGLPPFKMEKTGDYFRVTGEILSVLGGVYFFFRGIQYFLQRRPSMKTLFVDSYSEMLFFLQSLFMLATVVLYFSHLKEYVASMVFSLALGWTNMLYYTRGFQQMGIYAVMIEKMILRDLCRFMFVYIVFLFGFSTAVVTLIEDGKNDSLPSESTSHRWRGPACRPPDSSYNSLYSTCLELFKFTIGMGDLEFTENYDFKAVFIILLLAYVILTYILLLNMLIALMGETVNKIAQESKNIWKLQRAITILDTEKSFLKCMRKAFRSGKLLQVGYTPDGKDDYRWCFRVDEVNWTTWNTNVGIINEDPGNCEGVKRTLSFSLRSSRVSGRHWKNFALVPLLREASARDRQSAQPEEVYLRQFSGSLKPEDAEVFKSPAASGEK

vanilloid receptor (VR1) = biological target: T2, vanilloid receptor (VR1) (Homo sapiens, UniProt Q8NER1); assay: FLIPR Ca2+ influx assay on CHO K1 cells transfected with the VR1 gene (pharmacological method II); type: cell-based
T2 construct: expressed in transfected cells; host or cells: CHO K1 cells (ECACC), stably transfected
T2 sequence (Q8NER1 whole entry): as above

[2] = system: formaldehyde induced nociceptive behaviour; assay: Formaldehyde test in mice, second (late) phase; type: in vivo, mouse; conditions: mouse; for inhibition in vivo at 0.1 mg/kg: 0.1 mg/kg body weight po; for inhibition in vivo at 0.1 mg/kg / inhibition in vivo at 1 mg/kg / inhibition in vivo at 0.3 mg/kg: read-out: inhibition formaldehyde test (n = 10); for inhibition in vivo at 1 mg/kg: 1 mg/kg body weight po
[3] = system: capsaicin induced hypothermie; assay: Hypothermie assay in the mouse (capsaicin induced hypothermie); type: in vivo; conditions: 0.3 mg/kg body weight po; mouse; read-out: inhibition hypothermie (n = 5)
Method: V. Hypothermie Assay an der Maus
Male NMRI mice (weight 25-35 gram, supplier IFFA CREDO, Bruxelles, Belgium) are used in the hypothermie assay. The animals are kept under standardized conditions: light/darkness interval (6:00 to 18:00 light; 18:00 to 6:00 Uhr darkness), room temperature 19-22° C., relative humidity 35-70%, 15 times per hour change of compartment air, airflow <0.2 m/sec. The animals were fed on a standardized diet (ssniff diet, ssniff Spezialdiäten GmbH, Soest, Germany) and tap water. Water and diet were detracted during the experiment. All animals were used once in the experiment. The animals were allowed to adapt to the experimental conditions for at least 5 days.
The acute application of capsaicin (VR-1 agonist) leads to a decrease of the core body temperature in rat and mice via stimulation of heat sensors. Only compounds which act as specific VR-1-receptor antagonists can antagonize the capsaicin induced hypothermie. In contrast, morphine induced hypothermie is not antagonized by VR-1 antagonists. Thus, this experiment is suitable for the determination of compounds that act as VR1-antagonists via their effect on the core body temperature.
For the determination of the core body temperature a digital thermometer was used (Thermalert TH-5, physitemp, Clifton N.J., USA). The measuring head was inserted into the rectum.
The individual basis value is determined by measuring the body temperature twice in an interval of about half an hour. […] […] The test compound is given 10 min (i.v.) or 15 min (p.o.), respectively, before application of capsaicin. The body temperature is determined 7.5/15 and 30 min after application of capsaicin (i.v.+i.p.) or 15/30/60/90/120 min after application of capsaicin (p.o.+i.p.), respectively. In addition, another group of mice is only given the test compound or a vehicle control.
The measuring points are given as average values±S.E.M. of the absolute values. The antagonistic effect is given in percent of inhibition of capsaicin induced hypothermie.

[4] = Table 2, displacement of capsaicin (100 nM), Cheng-Prusoff, read-out: Ki (rat)
[5] = Table 2, displacement of capsaicin (100 nM), Cheng-Prusoff, read-out: Ki (human)
[6] = table 4, capsaicin, read-out: Ki (rat) Cap.
[7] = table 4, capsaicin, read-out: Ki (human) Cap.

Ki [1, 4]: 2.5 nM
IC50 (VR1/TRPV1 receptor; Table 2): 121 nM
Ki (vanilloid receptor (VR1); [5]): 2.3 nM
SMILES: CC(C(=O)NCc1ccc(C(F)(F)F)cc1N1CCCC1)c1ccc(NS(C)(=O)=O)c(F)c1 (centres unmarked) [Example 34, 2-(3-fluoro-4-(methylsulfonamido)phenyl)-N-(2-(pyrrolidin-1-yl)-4-(trifluoromethyl)benzyl)propanamide]
inhibition in vivo at 0.1 mg/kg [2]: 6%

SMILES: CC(C(=O)NCc1ccc(C(F)(F)F)cc1N1CCCCCC1)c1ccc(NS(C)(=O)=O)c(F)c1 (centres unmarked) [Compound 174]
inhibition in vivo at 1 mg/kg [2]: 49%

SMILES: CC(C(=O)NCc1ccc(C(F)(F)Cl)nc1OCc1ccccn1)c1ccc(NS(C)(=O)=O)c(F)c1 (centres unmarked) [Compound 182]
inhibition in vivo at 1 mg/kg [2]: 8%

SMILES: CC(C(=O)NCc1ccc(C(F)(F)F)nc1OCCc1ccccc1)c1ccc(NS(C)(=O)=O)c(F)c1 (centres unmarked) [Compound 178]
inhibition in vivo at 1 mg/kg [2]: 28%

SMILES: CC(C(=O)NCc1ccc(C(F)(F)F)nc1-c1cccs1)c1ccc(NS(C)(=O)=O)c(F)c1 (centres unmarked) [Compound 88]
inhibition in vivo at 1 mg/kg [2]: 16%

Ki [1, 4]: 0.8 nM
IC50 (VR1/TRPV1 receptor; Table 2): 22.4 nM
Ki (vanilloid receptor (VR1); [5]): 1.3 nM
SMILES: CC(C(=O)NCc1ccc(C(F)(F)Cl)nc1N1CCCCC1)c1ccc(NS(C)(=O)=O)c(F)c1 (centres unmarked) [Example 71, N-((6-(chlorodiflouromethyl)-2-(piperidin-1-yl)pyridin-3-yl)methyl)-2-(3-fluoro-(4-methylsulfonamido)phenyl)propanamide]
inhibition formaldehyde test (n = 10) ([2]; 0.3 mg/kg body weight po): 0.3 po 0%

SMILES: CCCCOc1cc(C(C)(C)C)ccc1CNC(=O)C(C)c1ccc(NS(C)(=O)=O)c(F)c1 (centres unmarked) [Compound 108]
inhibition in vivo at 1 mg/kg [2]: 24%

SMILES: CC(C(=O)NCc1ccc(C(F)(F)F)nc1SC1CCCCC1)c1ccc(NS(C)(=O)=O)c(F)c1 (centres unmarked) [Compound 126]
inhibition in vivo at 0.3 mg/kg ([2]; 0.3 mg/kg body weight po): 69%

SMILES: CC(C(=O)NCc1ccc(C(F)(F)F)nc1N1CCN(c2ccc(F)cc2)CC1)c1ccc(NS(C)(=O)=O)c(F)c1 (centres unmarked) [Compound 179]
inhibition in vivo at 1 mg/kg [2]: 22%

SMILES: CC(C(=O)NCc1ccc(C(F)(F)F)nc1-c1cccc(F)c1)c1ccc(NS(C)(=O)=O)c(F)c1 (centres unmarked) [Compound 148]
inhibition in vivo at 1 mg/kg [2]: 46%

SMILES: CC(C(=O)NCc1ccc(C(C)(C)C)nc1OC1CCCC1)c1ccc(NS(C)(=O)=O)c(F)c1 (centres unmarked) [Compound 234]
inhibition in vivo at 0.3 mg/kg [3]: 31%
inhibition in vivo at 0.1 mg/kg [2]: 28%
inhibition in vivo at 0.3 mg/kg ([2]; 0.3 mg/kg body weight po): 41%
inhibition in vivo at 1 mg/kg [2]: 44%

SMILES: CC(C(=S)NCc1ccc(C(F)(F)F)nc1-c1ccc(F)cc1)c1ccc(NS(C)(=O)=O)c(F)c1 (centres unmarked) [Compound 130]
inhibition in vivo at 1 mg/kg [2]: 55%

Ki [1, 6]: 1.7 nM
IC50 (VR1/TRPV1 receptor; table 4): 534 nM
Ki (vanilloid receptor (VR1); [7]): 8.1 nM
SMILES: CC(C(=O)NCc1ccc(C(C)(C)C)cc1OC1CCCCC1)c1ccc(NS(C)(=O)=O)c(F)c1 (centres unmarked) [Example 154, N-(4-tert-butyl-2-cyclohexyloxy-benzyl)-2-(3-fluoro-4-methylsulfonamido-phenyl)-propionamide]
inhibition in vivo at 0.3 mg/kg [3]: 12%

Ki ([1]; Ki (rat) Cap., table 4, capsaicin): 1.2 nM
IC50 (VR1/TRPV1 receptor; table 4): 115 nM
Ki (vanilloid receptor (VR1); [7]): 1.1 nM
SMILES: CC(C(=O)NCc1ccc(C(F)(F)F)nc1OCC1CC1)c1ccc(NS(C)(=O)=O)c(F)c1 (centres unmarked) [Example 100, N-(2-cyclopropylmethoxy-6-trifluoromethyl-pyridin-3-ylmethyl)-2-(3-fluoro-4-methylsulfonamido-phenyl)-propionamide]
inhibition in vivo at 0.3 mg/kg [3]: 26%

SMILES: Cc1cc(C(C)C(=O)NCc2ccc(C(F)(F)F)nc2N2CCCCC2)ccc1NS(C)(=O)=O (centres unmarked) [Compound 127]
inhibition in vivo at 1 mg/kg [2]: 25%

Ki [1, 6]: 0.5 nM
IC50 (VR1/TRPV1 receptor; table 4): 64.7 nM
Ki (vanilloid receptor (VR1); [7]): 2 nM
SMILES: CC(C(=O)NCc1ccc(C(F)(F)F)cc1N1CCN(c2ccccc2)CC1)c1ccc(NS(C)(=O)=O)c(F)c1 (centres unmarked) [Example 216]
inhibition in vivo at 0.3 mg/kg [3]: 4%

Ki [1, 6]: 22.4 nM
IC50 (VR1/TRPV1 receptor; table 4): 1320 nM
Ki (vanilloid receptor (VR1); [7]): 63.3 nM
SMILES: CC(C(=O)NCc1ccc(C(F)(F)F)nc1-c1ccccc1F)c1ccc(NS(C)(=O)=O)c(F)c1 (centres unmarked) [Example 150, 2-(3-fluoro-4-methylsulfonamido-phenyl)-N-[2-(2-fluoro-phenyl)-6-trifluoromethyl-pyridin-3-ylmethyl]-propionamide]
inhibition in vivo at 0.3 mg/kg ([2]; 0.3 mg/kg body weight po): 17%
